Tested on: Akt/PKB phosphorylation
Assay: TCR-induced Akt/PKB phosphorylation in thymocytes (Western blot)
Assay type: cell-based, mouse
Settings: thymocytes from 6 week old wild type animals
Method: Cell lysates (from cell lines or thymocytes) were prepared on ice in M-PER Mammalian Protein Extraction reagent (Pierce) containing a cocktail of protease and phosphatase inhibitors (Swat et al., 2006). Equal amounts of total protein from lysates were subjected to SDS-PAGE, transferred to PVDF membrane (Immobilon-P, Millipore), and membranes probed by overnight incubation with appropriate primary antibodies. Bound antibodies were visualized with HRP-conjugated secondary antibodies and ECL chemistry (SuperPico West, Pierce).
To assess the requirement for p110δ in TCR-induced phosphorylation of Akt/PBK, single-cell suspensions of thymocytes (1×10^8/mL) from PI3Kγ-deficient animals were incubated with the p110δ-specific inhibitor IC87114 (10 μM) or with vehicle control (DMSO) for 30 minutes before TCR cross-linking, as described for the Ca^2+ flux assay. Aliquots (100 μL) were collected at 0, 10, 30, and 60 minutes after TCR cross-linking, briefly centrifuged to pellet, and subsequently lysed with ice-cold M-Per (Pierce, Rockford, IL) (according to the manufacturer's recommendations) that contained a cocktail of phosphatase and protease inhibitors (Puri et al., 2005). Lysates were clarified by centrifugation (12,000 g for 15 minutes at 4° C.), and total and phosphorylated Akt/PBK were determined by Western blot analysis.

Question: For Cc1ccccc1-n1c(C(C)Nc2nc(N)nc3nc[nH]c23)nc2cccc(C)c2c1=O (stereo not shown) [CAL-130], which “TCR induced Akt phosphorylation (Ser473)” value is on record?
Answer: prevented
